Series [1] concerns jejunal oxygen consumption. As to the kind of experiment: Jejunal oxygen consumption of treated mice, with and without ouabain. The following applies: jejunum of treated mice, 37° C.; for Oxygen Consumption, With Ouabain, Dry / Oxygen Consumption, Without Ouabain, Dry: dry tissue; for Oxygen Consumption, With Ouabain, Wet / Oxygen Consumption, Without Ouabain, Wet: wet tissue. Type of series: in vivo, swiss-webster mice. As for the experimental part:
(§1) Two month old male swiss-webster mice obtained from Charles River Laboratory were subcutaneously injected in the post-scapula region once a day for three days with one of the following treatments: (1) Saline treatment: 0.25 ml of sterile physiological saline (0.9% saline) (n=9 mice); (2) Peptide YY (PYY) treatment: 300 μg per kilogram body weight of Peptide YY in 0.25 ml sterile physiological saline solution (n=6 mice); (c) Somatostatin treatment: 120 μg per kilogram body weight of somatostatin in 0.25 ml sterile physiological saline solution (n=6 mice); or (4) Transforming Growth Factor alpha (TGFα) treatment: 300 μg per kilogram body weight of TGFα in 0.25 ml sterile physiological saline solution (n=6 mice).
Measurement of oxygen consumption rate was determined as described by McBride and Milligan, Br. J. Nutr., 53:605 (1985) for ovine duodenal mucosa, and as described by Bird et al., J. Nutr. 124:231 (1994) for mice jejunum, using an oxygen monitor and an incubation bath fitted with an O2 electrode (Yellow Springs Instruments, Yellow Springs, Ohio, USA). Adjacent jejunal ring samples (two from each mouse jejunum) were prepared by rinsing in ice-cold HEPES transport buffer to remove digesta residues. The rate of O2 uptake of the duplicate jejunal samples, constantly stirred in 4 ml of media at 37° C., was electronically recorded. After 3 minutes, 100 uL of 12.6 mmol/L ouabain (Sigma Chemical), a specific inhibitor of Na+, K+-ATPase, was added to the chamber and oxygen consumption was plotted for 3 minutes. Dry matter content of the tissue pieces was then measured by drying the jejunal samples at 80° C. in a forced draught oven for 48 hours.

For series [2], the system named is jejunal glucose transport (S-GLT1 transporter). As to the kind of experiment: Jejunal glucose transport ([3H]3-O-methyl-D-glucose uptake by jejunal rings of treated mice, with and without phlorizin). The series is classed as in vivo, swiss-webster mice. Particulars: for Glucose Transport, Total / Glucose Transport, Active / Glucose Transport, Passive: mid-jejunal rings of treated mice; for Glucose Transport, Total: 37° C. without phlorizin minus 4° C. with phlorizin; for Glucose Transport, Active: difference of 3OMG accumulation with and without phlorizin, 37° C.; for Glucose Transport, Passive: with phlorizin, 37° C. minus 4° C. As for the experimental part:
as §1
A sample of mid-jejunal tissue was dissected out of each of the small intestines removed in Example 2. As described below, each glucose transport assay was replicated three times per mouse, and an assay to measure non-specific binding was replicated twice per mouse. Thus each mid-jejunal sample (one from each mouse) was cut into eight one millimeter rings.
The assay for glucose transport was a modification of the assay validated by Black, Comp. Biochem Physiol. 90A:379 (1988) to measure glucose transport in embryonic chick duodenum. Additional details of the present method as modified for mouse intestine are discussed in Bird et al., J. Nutr. 124:231 (1994), and the method is validated for mice in Bird et al., Nutr. Research, 14:411 […]. The transport buffer utilized for jejunal samples was similar to that described by Black (1988) but also contained 0.5 mmol/L 3-O-methyl-D-glucose (3 OMG), 0.5 mmol/L B-hydroxybutyrate, and 2.5 mmol/L glutamine. The assay was started by transferring intestinal rings preincubated at 37° C. for 5 minutes in transport buffer to beakers containing 28 MBq/L of [^3 H]3 OMG in 2 ml of buffer. To differentiate active from passive transport, phlorizin (phloretin-2'-β-D-glucoside; Sigma Chemicals, St. Louis, Mo.) was utilized. Phlorizin is a specific inhibitor of the S-GLT1 transporter (a sodium dependent active transporter) located on the luminal surface of absorptive epithelium (see Brot-Laroche and Alvarado, Mechanisms of sugar transport across the intestinal brush border membrane, IN: Intestinal Transport: Fundamental and Comparative Aspects, Gilles-Baillin and Gilles (Eds.), Springer-Verlag, Berlin (1983)). The S-GLT1 transporter is one of a family of transporter proteins, and actively transports glucose.
Uptake of [^3 H]3 OMG was stopped after 5 minutes by rinsing samples in 3 ml of ice-cold mannitol (300 mmol/L). Labelled substrate was extracted from the tissue into 2 mL of trichloroacetic acid (25 g/L) at 37° C. for 60 minutes in a shaking water bath. Samples were removed, blotted and weighed. The extract was centrifuged at 2000×g for 15 minutes at 4° C., and then 1 ml of the decanted supernatant was dispersed in 5 ml of Ecolite (+) scintillation cocktail (ICN Biomedicals, Cleveland, Ohio) and counted for 10 minutes in a scintillation counter. Duplicate aliquots (100 uL) of incubation media containing approximately 2.8 kBq [^3 H]3 OMG (both with and without phlorizin) and a blank were counted with each set of samples.
Active glucose transport was calculated as the difference between 3 OMG accumulation in media with and without phlorizin. Passive transport was calculated as the difference between 3 OMG accumulation in the presence of phlorizin at 37° C. and 4° C. Total transport is the difference between 3 OMG accumulation at 37° C., in the absence of phlorizin, and accumulation at 4° C. in the presence of phlorizin. Transport data are presented as pmol glucose/(min-mg wet tissue). Fasting body weight of the mice was used to express data on a body weight basis.

Series [3] in a line: Visceral organ weight of treated mice. Type of series: in vivo, swiss-webster mice. As for the experimental part: as §1
After the treated mice were sacrificed by cervical dislocation as described in Example 2, the visceral organs were dissected out and the liver, stomach, kidneys, colon and caecum of each mouse was weighed. The kidneys of the PYY treatment group were heavier than those of other treatment groups for unknown reasons.

Series [4] concerns Na-dependent active glucose uptake. As to the kind of experiment: Energetic efficiency of Na-dependent active glucose uptake. The series is classed as in vivo, swiss-webster mice. The following applies: compared with saline control; 1 nmol O2 assumed = 5 nmol ATP; FIG. 1. As for the experimental part: The energetic efficiency of Na-dependent active glucose uptake in the PYY treated mice and the saline control treated mice was calculated, assuming that consumption of 1 nmol of O2 (as measured in Example 5, above) indicated expenditure of 5 nmol of ATP (Gill et al., J. Nutr. 119:1287-1299 (1989).

Series [5] has as its system water and electrolyte absorption from the small intestine. Particulars: unfed dogs, peripheral infusion; cited from earlier work.
Series [6] deals with sodium-dependent duodenal active transport. The following applies: sheep injected with recombinant bovine growth hormone; cited from earlier work.
[7] abbreviates: mice, s.c. once a day for three days.

On to `C[C@H](N)C(=O)NCC(=O)N[C@H]1CSSC[C@@H](C(=O)O)NC(=O)[C@H](CO)NC(=O)[C@H]([C@@H](C)O)NC(=O)[C@H](Cc2ccccc2)NC(=O)[C@H]([C@@H](C)O)NC(=O)[C@H](CCCCN)NC(=O)[C@H](Cc2c[nH]c3ccccc23)NC(=O)[C@H](Cc2ccccc2)NC(=O)[C@H](Cc2ccccc2)NC(=O)[C@H](CC(N)=O)NC(=O)[C@H](CCCCN)NC1=O` [Somatostatin, somatostatin], for which, in series [1], the “Oxygen Consumption, With Ouabain, Dry” value is 181.29 µL/min/g; the “Oxygen Consumption, Without Ouabain, Dry” value came to 224.77 µL/min/g; the “Oxygen Consumption, With Ouabain, Wet” value was found to be 35.13 µL/min/g; the “Oxygen Consumption, Without Ouabain, Wet” value was found to be 43.62 µL/min/g. In addition, in series [2], the “Glucose Transport, Total” value was 371 pmol/min/mg tissue; the “Glucose Transport, Active” value was 303 pmol/min/mg tissue; the “Glucose Transport, Passive” value stood at 67 pmol/min/mg tissue. For the same molecule, in series [3] (setting [7]), the “Organ Weight, Caecum” value worked out at 156 mg; the “Organ Weight, Colon” value stood at 316 mg; the “Organ Weight, Kidneys” value is 534 mg; the “Organ Weight, Liver” value amounted to 1441 mg. Further, the “Organ Weight, Stomach” value in series [3] (setting [7]) was determined as 232 mg.
Turning to “PYY: 36 amino acid hormonal peptide, produced by "L type" endocrine cells; member of the pancreatic polypeptide family [Peptide YY]”, in series [1], the “Oxygen Consumption, With Ouabain, Dry” value worked out at 194.22 µL/min/g; the “Oxygen Consumption, Without Ouabain, Dry” value came to 253.93 µL/min/g; the “Oxygen Consumption, With Ouabain, Wet” value was determined as 36.54 µL/min/g; the “Oxygen Consumption, Without Ouabain, Wet” value worked out at 47.71 µL/min/g. In addition, the “metabolic cost of total glucose uptake (total nmol ATP expended per nmol of 3OMG uptake)” value in series [4] is reported as “less”. Moreover, the “increase in active glucose transport expressed per unit of body weight (Table 2 footnote)” value in series [2] (compared to saline control) was 46. In addition, in series [2] (compared to the saline control group), the “increase in active glucose transport expressed per unit of fasting body weight” value was 46%. In addition, in series [2], the “Glucose Transport, Total” value turned out to be 431 pmol/min/mg tissue; the “Glucose Transport, Active” value worked out at 369 pmol/min/mg tissue; the “Glucose Transport, Passive” value came out at 63 pmol/min/mg tissue. For the same molecule, in series [2] (per milligram of intestinal tissue), the “active glucose transport, comparison with saline control group” value is recorded as “statistically significant increase”. Further, in series [3] (mouse, in vivo, sc), the “Organ Weight, Caecum” value is recorded as 134 mg; the “Organ Weight, Colon” value is given as 315 mg; the “Organ Weight, Kidneys” value was found to be 468 mg; the “Organ Weight, Liver” value is given as 1274 mg. The “Organ Weight, Stomach” value in series [3] (mouse, in vivo, sc) turned out to be 230 mg. The “water and electrolyte absorption from the small intestine” value in series [5] is recorded as “dose-dependent increase”.
Consider Transforming Growth Factor alpha [TGFα], for which, in series [1], the “Oxygen Consumption, With Ouabain, Dry” value came to 179.01 µL/min/g; the “Oxygen Consumption, Without Ouabain, Dry” value came out at 238.76 µL/min/g; the “Oxygen Consumption, With Ouabain, Wet” value was 36.03 µL/min/g; the “Oxygen Consumption, Without Ouabain, Wet” value came to 47.96 µL/min/g. For the same molecule, in series [2], the “Glucose Transport, Total” value is given as 410 pmol/min/mg tissue; the “Glucose Transport, Active” value came to 347 pmol/min/mg tissue; the “Glucose Transport, Passive” value is 64 pmol/min/mg tissue. Also, in series [3] (mouse, in vivo, sc), the “Organ Weight, Caecum” value was 156 mg; the “Organ Weight, Colon” value is 379 mg; the “Organ Weight, Kidneys” value is 522 mg; the “Organ Weight, Liver” value came out at 1442 mg. Moreover, the “Organ Weight, Stomach” value in series [3] (mouse, in vivo, sc) turned out to be 243 mg.

B1: recombinant bovine growth hormone: recombinant bovine growth hormone injected in sheep (cited Ph.D. thesis) (protein, UniProt P01246 27-217, looked up)
Somatotropin: AFPAMSLSGLFANAVLRAQHLHQLAADTFKEFERTYIPEGQRYSIQNTQVAFCFSETIPAPTGKNEAQQKSDLELLRISLLLIQSWLGPLQFLSRVFTNSLVFGTSDRVYEKLKDLEEGILALMRELEDGTPRAGQILKQTYDKFDTNMRSDDALLKNYGLLSCFRKDLHKTETYLRVMKCRRFGEASCAF
Consider B1, for which, in series [6], the “increase of sodium-dependent duodenal active transport of glucose” value was “approximately 60%” and the “increase of transport of proline” value is reported as “approximately 30%”.

The values are drawn from patent US5912227A, “Method of enhancing nutrient uptake” (North Carolina State University, priority 1995, dated 1999).
